In patent publication US4393228A, “Epoxysuccinic acid derivatives” (Taisho Pharmaceutical Co., Ltd., priority 1977, dated 1983):

Molecular target: T1, papain (Carica papaya, UniProt P00784)
T1 construct: purchased Sigma Chem. Co
T1 sequence (P00784 134-345): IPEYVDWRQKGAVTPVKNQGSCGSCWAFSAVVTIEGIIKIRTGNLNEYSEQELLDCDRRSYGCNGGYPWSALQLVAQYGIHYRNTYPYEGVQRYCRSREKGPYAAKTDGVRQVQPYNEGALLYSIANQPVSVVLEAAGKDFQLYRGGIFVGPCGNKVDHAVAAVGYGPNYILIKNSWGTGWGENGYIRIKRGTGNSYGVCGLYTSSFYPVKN
Test: Papain inhibitory activity (milk casein digestion)
Format: biochemical
Conditions: papain 80 μg/ml 0.5 ml, cysteine, pH 6.8, 1% milk casein, 40° C., 10 minutes
Procedure: Papain inhibitory activity of the compounds of this invention was assayed as follows: To 0.5 ml of a solution of papain (80 μg/ml, Sigma Chem. Co., 2x cry.), were added 0.25 ml of 40 mM cysteine dissolved in 20 mM disodium ethylenediamine tetraacetic acid solution adjusted pH to 6.8 with sodium hydroxide and 0.25 ml of 33 mM phosphate buffer (pH 6.8) with or without inhibitor. After incubation at 40° C. for 15 minutes, the resulting mixture was added to 5 ml of 1% milk casein solution in the same buffer as described above, and further incubated at 40° C. for 10 minutes. Then the mixture was mixed with 5 ml of 0.44 M trichloroacetic acid solution and followed by filtration with a sheet of Toyo filter paper No. 4. The extinction of the filtrate was read at 280 nm. The percent inhibition was calculated from the formula, 100 x (B-A)/B; wherein B stands for the absorbance without inhibitor and A for the absorbance with inhibitor. The compound Nos. in Table 1 are as defined in Examples as described hereinafter.

O=C(OCC1CCC=CCCC1)[C@@H]1O[C@H]1C(=O)OCC1CCC=CCCC1 (relative stereo) [EP-73, di-4-cyclooctenemethyl epoxysuccinate]
ID50 (amount of inhibitor for 50% inhibition): 0.10 γ

O=C(O)[C@@H]1O[C@H]1C(=O)OCC1CCC=CCCC1 (relative stereo) [EP-74, 4-cyclooctenemethyl potassium epoxysuccinate]
ID50 (amount of inhibitor for 50% inhibition): 0.07 γ

O=C(O)[C@@H]1O[C@H]1C(=O)OCC1CCCO1 (relative stereo) [EP-76, tetrahydro-2-furanmethyl potassium epoxysuccinate]
ID50 (amount of inhibitor for 50% inhibition): 0.82 γ

O=C(OCc1ccco1)[C@@H]1O[C@H]1C(=O)OCc1ccco1 (relative stereo) [EP-77, di-2-furanmethyl epoxysuccinate]
ID50 (amount of inhibitor for 50% inhibition): 0.77 γ

O=C(O)[C@@H]1O[C@H]1C(=O)OCc1ccco1 (relative stereo) [EP-78, 2-furanmethyl potassium epoxysuccinate]
ID50 (amount of inhibitor for 50% inhibition): 0.54 γ

O=C(O)[C@@H]1O[C@H]1C(=O)OCc1cccs1 (relative stereo) [EP-80, 2'-thenyl potassium epoxysuccinate]
ID50 (amount of inhibitor for 50% inhibition): 0.32 γ

O=C(O)[C@@H]1O[C@H]1C(=O)OCc1cccc2ccccc12 (relative stereo) [EP-82, 1'-naphthylmethyl potassium epoxysuccinate]
ID50 (amount of inhibitor for 50% inhibition): 0.34 γ

O=C(OCc1c(Cl)ccc2ccccc12)[C@@H]1O[C@H]1C(=O)OCc1c(Cl)ccc2ccccc12 (relative stereo) [EP-83, di-2'-chloro-1'-naphthylmethyl epoxysuccinate]
ID50 (amount of inhibitor for 50% inhibition): 1.55 γ

O=C(O)[C@@H]1O[C@H]1C(=O)OCc1c(Cl)ccc2ccccc12 (relative stereo) [EP-84, 2'-chloro-1'-naphthylmethyl potassium epoxysuccinate]
ID50 (amount of inhibitor for 50% inhibition): 0.29 γ

O=C(OCc1cccc2c(Br)cccc12)[C@@H]1O[C@H]1C(=O)OCc1cccc2c(Br)cccc12 (relative stereo) [EP-85, di-5'-bromo-1'-naphthylmethyl epoxysuccinate]
ID50 (amount of inhibitor for 50% inhibition): 1.56 γ

O=C(O)[C@@H]1O[C@H]1C(=O)OCc1cccc2c(Br)cccc12 (relative stereo) [EP-86, 5'-bromo-1'-naphthylmethyl potassium epoxysuccinate]
ID50 (amount of inhibitor for 50% inhibition): 0.27 γ

Cc1cccc2c(COC(=O)[C@@H]3O[C@H]3C(=O)OCc3ccc(C)c4c(C)cccc34)ccc(C)c12 (relative stereo) [EP-87, di-4',5'-dimethyl-1'-naphthylmethyl epoxysuccinate]
ID50 (amount of inhibitor for 50% inhibition): 1.58 γ

Cc1cccc2c(COC(=O)[C@@H]3O[C@H]3C(=O)O)ccc(C)c12 (relative stereo) [EP-88, 4',5'-dimethyl-1'-naphthylmethyl potassium epoxysuccinate]
ID50 (amount of inhibitor for 50% inhibition): 0.32 γ

Cc1ccc(COC(=O)[C@@H]2O[C@H]2C(=O)OCc2ccc(C)cc2)cc1 (relative stereo) [EP-89, di-p-methylbenzyl epoxysuccinate]
ID50 (amount of inhibitor for 50% inhibition): 1.39 γ

Cc1ccc(COC(=O)[C@@H]2O[C@H]2C(=O)O)cc1 (relative stereo) [EP-90, p-methylbenzyl potassium epoxysuccinate]
ID50 (amount of inhibitor for 50% inhibition): 0.25 γ

Cc1ccccc1COC(=O)[C@@H]1O[C@H]1C(=O)OCc1ccccc1C (relative stereo) [EP-91, di-o-methylbenzyl epoxysuccinate]
ID50 (amount of inhibitor for 50% inhibition): 0.35 γ

Cc1ccccc1COC(=O)[C@@H]1O[C@H]1C(=O)O (relative stereo) [EP-92, o-methylbenzyl potassium epoxysuccinate]
ID50 (amount of inhibitor for 50% inhibition): 0.10 γ

Cc1cc(C)cc(COC(=O)[C@@H]2O[C@H]2C(=O)OCc2cc(C)cc(C)c2)c1 (relative stereo) [EP-93, di-3',5'-dimethylbenzyl epoxysuccinate]
ID50 (amount of inhibitor for 50% inhibition): 4.31 γ

Cc1cc(C)cc(COC(=O)[C@@H]2O[C@H]2C(=O)O)c1 (relative stereo) [EP-94, 3',5'-dimethylbenzyl potassium epoxysuccinate]
ID50 (amount of inhibitor for 50% inhibition): 0.27 γ

Cc1cc(C)c(COC(=O)[C@@H]2O[C@H]2C(=O)OCc2c(C)cc(C)cc2C)c(C)c1 (relative stereo) [EP-95, di-2',4',6'-trimethylbenzyl epoxysuccinate]
ID50 (amount of inhibitor for 50% inhibition): 4.20 γ

Cc1cc(C)c(COC(=O)[C@@H]2O[C@H]2C(=O)O)c(C)c1 (relative stereo) [EP-96, 2',4',6'-trimethylbenzyl potassium epoxysuccinate]
ID50 (amount of inhibitor for 50% inhibition): 0.37 γ

Cc1cccc(COC(=O)[C@@H]2O[C@H]2C(=O)OCc2cccc(C)c2Br)c1Br (relative stereo) [EP-97, di-2'-bromo-3'-methylbenzyl epoxysuccinate]
ID50 (amount of inhibitor for 50% inhibition): 3.20 γ

Cc1cccc(COC(=O)[C@@H]2O[C@H]2C(=O)O)c1Br (relative stereo) [EP-98, 2'-bromo-3'-methylbenzyl potassium epoxysuccinate]
ID50 (amount of inhibitor for 50% inhibition): 0.32 γ

O=C(OCc1cccc(C(F)(F)F)c1)[C@@H]1O[C@H]1C(=O)OCc1cccc(C(F)(F)F)c1 (relative stereo) [EP-99, di-3'-trifluoromethylbenzyl epoxysuccinate]
ID50 (amount of inhibitor for 50% inhibition): 0.50 γ

O=C(O)[C@@H]1O[C@H]1C(=O)OCc1cccc(C(F)(F)F)c1 (relative stereo) [EP-100, 3'-trifluoromethylbenzyl potassium epoxysuccinate]
ID50 (amount of inhibitor for 50% inhibition): 0.10 γ

COc1ccc(COC(=O)[C@@H]2O[C@H]2C(=O)OCc2ccc(OC)cc2)cc1 (relative stereo) [EP-101, di-p-methoxybenzyl epoxysuccinate]
ID50 (amount of inhibitor for 50% inhibition): 1.51 γ

O=C(OCc1ccc2c(c1)OCO2)[C@@H]1O[C@H]1C(=O)OCc1ccc2c(c1)OCO2 (relative stereo) [EP-103, di-methylene-3',4'-dioxybenzyl epoxysuccinate]
ID50 (amount of inhibitor for 50% inhibition): 1.06 γ

O=C(O)[C@@H]1O[C@H]1C(=O)OCc1ccc2c(c1)OCO2 (relative stereo) [EP-104, methylene-3',4'-dioxybenzyl potassium epoxysuccinate]
ID50 (amount of inhibitor for 50% inhibition): 0.36 γ

O=C(OCc1ccccc1I)[C@@H]1O[C@H]1C(=O)OCc1ccccc1I (relative stereo) [EP-105, di-o-iodobenzyl epoxysuccinate]
ID50 (amount of inhibitor for 50% inhibition): 0.40 γ

O=C(O)[C@H]1O[C@@H]1C(=O)OCc1ccccc1I (relative stereo) [EP-106, o-iodobenzyl potassium epoxysuccinate]
ID50 (amount of inhibitor for 50% inhibition): 0.14 γ

O=C(OCc1ccccc1Cl)[C@@H]1O[C@H]1C(=O)OCc1ccccc1Cl (relative stereo) [EP-107, di-o-chlorobenzyl epoxysuccinate]
ID50 (amount of inhibitor for 50% inhibition): 0.15 γ

O=C(O)[C@H]1O[C@@H]1C(=O)OCc1ccccc1Cl (relative stereo) [EP-108, o-chlorobenzyl potassium epoxysuccinate]
ID50 (amount of inhibitor for 50% inhibition): 0.09 γ

O=C(OCc1cccc(Cl)c1)[C@@H]1O[C@H]1C(=O)OCc1cccc(Cl)c1 (relative stereo) [EP-109, di-m-chlorobenzyl epoxysuccinate]
ID50 (amount of inhibitor for 50% inhibition): 0.50 γ

O=C(O)[C@H]1O[C@@H]1C(=O)OCc1cccc(Cl)c1 (relative stereo) [EP-110, m-chlorobenzyl potassium epoxysuccinate]
ID50 (amount of inhibitor for 50% inhibition): 0.24 γ

O=C(OCc1ccc(I)cc1)[C@@H]1O[C@H]1C(=O)OCc1ccc(I)cc1 (relative stereo) [EP-111, di-p-iodobenzyl epoxysuccinate]
ID50 (amount of inhibitor for 50% inhibition): 2.91 γ

O=C(O)[C@H]1O[C@@H]1C(=O)OCc1ccc(I)cc1 (relative stereo) [EP-112, p-iodobenzyl potassium epoxysuccinate]
ID50 (amount of inhibitor for 50% inhibition): 0.32 γ

O=C(OCc1ccc(Br)cc1)[C@@H]1O[C@H]1C(=O)OCc1ccc(Br)cc1 (relative stereo) [EP-113, di-p-bromobenzyl epoxysuccinate]
ID50 (amount of inhibitor for 50% inhibition): 0.99 γ

O=C(O)[C@H]1O[C@@H]1C(=O)OCc1ccc(Br)cc1 (relative stereo) [EP-114, p-bromobenzyl potassium epoxysuccinate]
ID50 (amount of inhibitor for 50% inhibition): 0.26 γ

O=C(OCc1ccc(Cl)cc1)[C@@H]1O[C@H]1C(=O)OCc1ccc(Cl)cc1 (relative stereo) [EP-115, di-p-chlorobenzyl epoxysuccinate]
ID50 (amount of inhibitor for 50% inhibition): 1.20 γ

O=C(OCc1ccc(Cl)cc1Cl)[C@H]1O[C@@H]1C(=O)OCc1ccc(Cl)cc1Cl (relative stereo) [EP-117, di-2',4'-dichlorobenzyl epoxysuccinate]
ID50 (amount of inhibitor for 50% inhibition): 2.55 γ

O=C(O)[C@H]1O[C@@H]1C(=O)OCc1ccc(Cl)cc1Cl (relative stereo) [EP-118, 2',4'-dichlorobenzyl potassium epoxysuccinate]
ID50 (amount of inhibitor for 50% inhibition): 0.11 γ
